Assay results taken from US20240208992A1, “MACROCYCLES AS CFTR MODULATORS” (Idorsia Pharmaceuticals Ltd, priority 2021, published 2024).

Target: human F508del-CFTR (Homo sapiens, UniProt P13569, DEL508-508)
Assay: F508del-CFTR cell surface expression (corrector activity), DiscoveRx ß-galactosidase complementation chemiluminescence assay in recombinant U2OS cell line;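 also: U2OS cells co-expressing ProLink-tagged F508del-CFTR and a membrane-anchored enzyme acceptor, where more surface CFTR restores β-galactosidase activity measured by chemiluminescence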
Conditions: for EC50: EC50, F508del-CFTR cell surface expression; for Emax: U2OS
[1] = U2OS cells, 16h compound incubation, geomean of several measurements
[2] = in relation to the Emax of the corrector lumacaftor (=100%), U2OS cells, 16h compound incubation, arithmetic mean
[3] = U2OS cells, 16h compound incubation, geomean values
[4] = in relation to Emax of corrector lumacaftor (=100%), arithmetic mean values
[5] = U2OS cell line, 16h compound incubation, geomean values
[6] = in relation to the Emax of the corrector lumacaftor (=100%), U2OS cell line, 16h compound incubation, arithmetic mean values

human F508del-CFTR, sequence (P13569 with tags, fused parts or gaps DEL508-508): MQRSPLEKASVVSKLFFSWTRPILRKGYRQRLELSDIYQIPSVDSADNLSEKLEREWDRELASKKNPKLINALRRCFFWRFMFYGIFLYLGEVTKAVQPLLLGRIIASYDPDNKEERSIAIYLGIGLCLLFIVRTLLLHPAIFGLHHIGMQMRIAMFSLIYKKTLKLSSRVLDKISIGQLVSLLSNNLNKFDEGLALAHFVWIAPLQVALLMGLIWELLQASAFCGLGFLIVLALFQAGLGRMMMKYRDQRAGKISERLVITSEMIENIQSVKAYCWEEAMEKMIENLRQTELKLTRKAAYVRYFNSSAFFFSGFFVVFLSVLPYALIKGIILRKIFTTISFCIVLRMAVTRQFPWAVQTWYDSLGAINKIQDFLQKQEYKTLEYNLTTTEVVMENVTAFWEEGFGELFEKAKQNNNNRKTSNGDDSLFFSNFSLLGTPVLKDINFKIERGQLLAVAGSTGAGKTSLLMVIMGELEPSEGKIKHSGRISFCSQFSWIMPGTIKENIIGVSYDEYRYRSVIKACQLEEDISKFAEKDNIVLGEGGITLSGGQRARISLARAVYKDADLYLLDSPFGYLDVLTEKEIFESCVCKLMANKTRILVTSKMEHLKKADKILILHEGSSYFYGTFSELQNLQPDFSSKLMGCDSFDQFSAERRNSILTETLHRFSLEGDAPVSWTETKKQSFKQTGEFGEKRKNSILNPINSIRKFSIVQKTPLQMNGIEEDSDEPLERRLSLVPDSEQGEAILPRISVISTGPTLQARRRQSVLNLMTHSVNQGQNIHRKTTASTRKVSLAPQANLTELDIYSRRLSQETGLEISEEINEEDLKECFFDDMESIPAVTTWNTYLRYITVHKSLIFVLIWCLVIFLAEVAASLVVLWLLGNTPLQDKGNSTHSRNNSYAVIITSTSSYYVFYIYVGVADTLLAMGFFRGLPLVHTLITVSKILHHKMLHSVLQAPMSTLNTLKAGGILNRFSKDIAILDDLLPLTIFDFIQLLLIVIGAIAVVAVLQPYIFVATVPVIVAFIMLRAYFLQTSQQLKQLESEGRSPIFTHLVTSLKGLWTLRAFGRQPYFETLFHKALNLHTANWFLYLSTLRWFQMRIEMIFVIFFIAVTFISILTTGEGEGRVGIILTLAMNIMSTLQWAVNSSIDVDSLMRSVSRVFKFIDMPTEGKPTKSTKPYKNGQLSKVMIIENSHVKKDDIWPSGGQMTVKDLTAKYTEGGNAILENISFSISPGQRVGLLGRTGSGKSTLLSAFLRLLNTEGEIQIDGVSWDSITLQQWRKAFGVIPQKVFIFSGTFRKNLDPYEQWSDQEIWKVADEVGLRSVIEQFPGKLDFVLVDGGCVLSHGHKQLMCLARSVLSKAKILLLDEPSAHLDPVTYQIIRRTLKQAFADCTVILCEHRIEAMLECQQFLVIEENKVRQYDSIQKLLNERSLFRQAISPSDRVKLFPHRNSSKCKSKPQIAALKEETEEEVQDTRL

Row | SMILES | EC50 [1] | Emax [2] | EC50 [3] | Emax [4] | other results
1 | COc1noc(CCNC(=O)[C@@H]2CC(=O)N(C)[C@@H](CC(C)C)C(=O)N(C)[C@H](CC(F)(F)F)C(=O)N[C@H](Cc3ccccc3)COc3ccc4cnc(C)cc4c3C(=O)N2)n1 [Example 938, (3S,7S,10R,13R)-13-benzyl-7-isobutyl-N-(2-(3-methoxy-1,2,4-oxadiazol-5-yl)ethyl)-6,9,20-trimethyl-1,5,8,11-tetraoxo-10-(2,2,2-trifluoroethyl)-1,2,3,4,5,6,7,8,9,10,11,12,13,14-tetradecahydro-[1]oxa[4,7,10,14]tetraazacycloheptadecino[16,17-f]isoquinoline-3-carboxamide] | 245 nM | 498% | – | – | –
2 | CC(C)C[C@H]1C(=O)N2CCOC[C@@H]2C(=O)N[C@H](Cc2ccccc2)COc2cnc3ccc(F)cc3c2C(=O)N[C@H](C(=O)NCCc2cc(C3CC3)no2)CC(=O)N1C [Example 644, (9S,13S,19aR,22R)-22-benzyl-N-(2-(3-cyclopropylisoxazol-5-yl)ethyl)-5-fluoro-13-isobutyl-12-methyl-7,11,14,20-tetraoxo-7,8,9,10,11,12,13,14,16,17,19,19a,20,21,22,23-hexadecahydro-[1,4]oxazino[3′,4′:6,7][1]oxa[4,7,10,14]tetraazacycloheptadecino[17,16-c]quinoline-9-carboxamide] | – | – | 277 nM | 270% | –
3 | CC(C)C[C@H]1C(=O)N2CCCC[C@@H]2C(=O)N[C@H](Cc2ccccc2)COc2cnc3ccccc3c2C(=O)N[C@H](C(=O)NCCc2ccc(-n3nccn3)cc2)CC(=O)N1C [Example 463, (9S,13S,19aR,22R)-N-(4-(2H-1,2,3-triazol-2-yl)phenethyl)-22-benzyl-13-isobutyl-12-methyl-7,11,14,20-tetraoxo-7,8,9,10,11,12,13,14,17,18,19,19a,20,21,22,23-hexadecahydro-16H-pyrido[2′,1′:6,7][1]oxa[4,7,10,14]tetraazacycloheptadecino[17,16-c]quinoline-9-carboxamide] | – | – | 278 nM | 269% | –
4 | CC(C)C[C@H]1C(=O)N(C)C2(CC2)C(=O)N[C@H](Cc2ccccc2)COc2cnc3ccccc3c2C(=O)N[C@H](C(=O)NCCc2ccc(-c3ncccn3)cc2)CC(=O)N1C [Example 496, (3′S,7′S,13′R)-13′-benzyl-7′-isobutyl-6′,9′-dimethyl-1′,5′,8′,11′-tetraoxo-N-(4-(pyrimidin-2-yl)phenethyl)-2′,3′,4′,5′,6′,7′,8′,9′,11′,12′,13′,14′-dodecahydro-1′H-spiro[cyclopropane-1,10′-[1]oxa[4,7,10,14]tetraazacycloheptadecino[17,16-c]quinoline]-3′-carboxamide] | – | – | 523 nM | 317% | –
5 | COc1cc(C[C@@H]2C(=O)N[C@H](Cc3ccccc3)COc3ccc4ncc(F)cc4c3C(=O)N[C@H](C(=O)NCCc3noc(C4CC4)n3)CC(=O)N(C)[C@@H](CC(C)C)C(=O)N2C)on1 [Example 879, (3S,7S,10R,13R)-13-benzyl-N-(2-(5-cyclopropyl-1,2,4-oxadiazol-3-yl)ethyl)-20-fluoro-7-isobutyl-10-((3-methoxyisoxazol-5-yl)methyl)-6,9-dimethyl-1,5,8,11-tetraoxo-1,2,3,4,5,6,7,8,9,10,11,12,13,14-tetradecahydro-[1]oxa[4,7,10,14]tetraazacycloheptadecino[16,17-f]quinoline-3-carboxamide] | 63 nM | 360% | – | – | –
6 | COc1ccc(CCNC(=O)[C@@H]2CC(=O)N(C)[C@@H](CC(C)C)C(=O)N(C)C3(CC3)C(=O)N[C@H](Cc3ccccc3)COc3cnc4ccccc4c3C(=O)N2)cc1 [Example 111, (3′S,7′S,13′R)-13′-benzyl-7′-isobutyl-N-(4-methoxyphenethyl)-6′,9′-dimethyl-1′,5′,8′,11′-tetraoxo-2′,3′,4′,5′,6′,7′,8′,9′,11′,12′,13′,14′-dodecahydro-1′H-spiro[cyclopropane-1,10′-[1]oxa[4,7,10,14]tetraazacycloheptadecino[17,16-c]quinoline]-3′-carboxamide] | – | – | – | – | EC50 [5]: 392 nM; Emax [6]: 242%
7 | CC(C)C[C@H]1C(=O)N(C)[C@H](Cc2nc(-c3ccc(F)cn3)no2)C(=O)N[C@H](Cc2ccccc2)COc2cnc3ccc(F)cc3c2C(=O)N[C@H](C(=O)NCCc2nc3ncccn3n2)CC(=O)N1C [Example 844, (3S,7S,10R,13R)-N-(2-([1,2,4]triazolo[1,5-a]pyrimidin-2-yl)ethyl)-13-benzyl-20-fluoro-10-((3-(5-fluoropyridin-2-yl)-1,2,4-oxadiazol-5-yl)methyl)-7-isobutyl-6,9-dimethyl-1,5,8,11-tetraoxo-1,2,3,4,5,6,7,8,9,10,11,12,13,14-tetradecahydro-[1]oxa[4,7,10,14]tetraazacycloheptadecino[17,16-c]quinoline-3-carboxamide] | 1040 nM | 356% | – | – | –
8 | COc1cccc(CCNC(=O)[C@@H]2CC(=O)N(C)[C@@H](CC(C)C)C(=O)N3CCCC[C@@H]3C(=O)N[C@H](Cc3ccccc3)COc3cnc4ccc(Cl)cc4c3C(=O)N2)c1 [Example 528, (9S,13S,19aR,22R)-22-benzyl-5-chloro-13-isobutyl-N-(3-methoxyphenethyl)-12-methyl-7,11,14,20-tetraoxo-7,8,9,10,11,12,13,14,17,18,19,19a,20,21,22,23-hexadecahydro-16H-pyrido[2′,11:6,7][1]oxa[4,7,10,14]tetraazacycloheptadecino[17,16-c]quinoline-9-carboxamide] | – | – | 321 nM | 337% | –
9 | CN1C(=O)C[C@@H](C(=O)NCCc2ccc3c(c2)OCO3)NC(=O)c2c(ccc3ccccc23)OC[C@@H](Cc2ccccc2)NC(=O)CN(CCC2CCCCC2)C(=O)[C@@H]1CC1CCCCC1 (racemic) [Example 291, (3RS,7S,13R)-N-(2-(benzo[d][1,3]dioxol-5-yl)ethyl)-13-benzyl-9-(2-cyclohexylethyl)-7-(cyclohexylmethyl)-6-methyl-1,5,8,11-tetraoxo-1,2,3,4,5,6,7,8,9,10,11,12,13,14-tetradecahydronaphtho[1,2-p][1]oxa[4,7,10,14]tetraazacycloheptadecine-3-carboxamide] | – | – | – | – | EC50 [5]: 109 nM; Emax [6]: 210%
10 | Cc1cc2c(c3cccnc13)C(=O)N[C@H](C(=O)NCCn1nnc(C3CC3)n1)CC(=O)N(C)[C@@H](CC(C)C)C(=O)N1CCCC[C@@H]1C(=O)N[C@H](Cc1ccccc1)CO2 [Example 888, (9S,13S,19aR,22R)-22-benzyl-N-(2-(5-cyclopropyl-2H-tetrazol-2-yl)ethyl)-13-isobutyl-2,12-dimethyl-7,11,14,20-tetraoxo-7,8,9,10,11,12,13,14,17,18,19,19a,20,21,22,23-hexadecahydro-16H-pyrido[2′,1′:6,7][1]oxa[4,7,10,14]tetraazacycloheptadecino[16,17-f]quinoline-9-carboxamide] | 170 nM | 410% | – | – | –
11 | COc1cccc2c1C(=O)N[C@H](C(=O)NCCC1CCC(C)(C)CO1)CC(=O)N(C)[C@@H](CC(C)C)C(=O)N(CCC1CCCCC1)CC(=O)N[C@H](Cc1ccccc1)CO2 (mixture of isomers) [Example 157, (3R,9S,13S)-3-benzyl-7-(2-cyclohexylethyl)-N-((RS)-2-(5,5-dimethyltetrahydro-2H-pyran-2-yl)ethyl)-9-isobutyl-16-methoxy-10-methyl-5,8,11,15-tetraoxo-2,3,4,5,6,7,8,9,10,11,12,13,14,15-tetradecahydrobenzo[p][1]oxa[4,7,10,14]tetraazacycloheptadecine-13-carboxamide] | – | – | – | – | EC50 [5]: 395 nM; Emax [6]: 121%
12 | COc1cc(CCNC(=O)[C@@H]2CC(=O)N(C)[C@@H](CC(C)C)C(=O)N(CCC3CCCCC3)CC(=O)N[C@H](Cc3ccccc3)COc3ccnc(OC)c3C(=O)N2)on1 [Example 582, (3R,9S,13S)-3-benzyl-7-(2-cyclohexylethyl)-9-isobutyl-16-methoxy-N-(2-(3-methoxyisoxazol-5-yl)ethyl)-10-methyl-5,8,11,15-tetraoxo-2,3,4,5,6,7,8,9,10,11,12,13,14,15-tetradecahydropyrido[3,4-p][1]oxa[4,7,10,14]tetraazacycloheptadecine-13-carboxamide] | – | – | 116 nM | 279% | –
13 | CC(C)C[C@H]1C(=O)N(C)[C@H](Cc2nc(C(F)(F)F)no2)C(=O)N[C@H](Cc2ccccc2)COc2ccc3ncc(F)cc3c2C(=O)N[C@H](C(=O)NCCn2nc3ccccc3n2)CC(=O)N1C [Example 937, (3S,7S,10R,13R)-N-(2-(2H-benzo[d][1,2,3]triazol-2-yl)ethyl)-13-benzyl-20-fluoro-7-isobutyl-6,9-dimethyl-1,5,8,11-tetraoxo-10-((3-(trifluoromethyl)-1,2,4-oxadiazol-5-yl)methyl)-1,2,3,4,5,6,7,8,9,10,11,12,13,14-tetradecahydro-[1]oxa[4,7,10,14]tetraazacycloheptadecino[16,17-f]quinoline-3-carboxamide] | 59 nM | 460% | – | – | –
14 | Cc1cccc(CCNC(=O)[C@@H]2CC(=O)N(C)[C@@H](CC(C)C)C(=O)N3CCOC[C@@H]3C(=O)N[C@H](Cc3ccccc3)COc3cnc4ccccc4c3C(=O)N2)c1 [Example 62, (9S,13S,19aR,22R)-22-benzyl-13-isobutyl-12-methyl-N-(3-methylphenethyl)-7,11,14,20-tetraoxo-7,8,9,10,11,12,13,14,16,17,19,19a,20,21,22,23-hexadecahydro-[1,4]oxazino[3′,4′:6,7][1]oxa[4,7,10,14]tetraazacycloheptadecino[17,16-c]quinoline-9-carboxamide] | – | – | – | – | EC50 [5]: 809 nM; Emax [6]: 222%
